Measurements from paper PMC10849125 (RSC Chemical Biology, 2023).

How the values were obtained:
[1] = biological target: HR1–HR2 interaction (MBP-HR1 / ALP-HR2) of SARS-CoV-2 (Severe acute respiratory syndrome coronavirus 2, UniProt P0DTC2); test: SPICA: inhibition of the HR1–HR2 interaction; format: binding; conditions: for inhibition of the HR1–HR2 interaction of SARS-CoV-2 (in words): negative controls; for IC50: pIC50 ± SD, 20 nM MBP-HR1 coated, 5 nM ALP-HR2, MES pH 6.4, OD630, SD
VeroE6/TMPRSS2 cells = test: Cytotoxicity, MTT assay; format: cell-based, African green monkey; conditions: mock cell viability, 3 days

SMILES	inhibition of the HR1–HR2 interaction of SARS-CoV-2 (in words) [1]	IC50 [1]	pCC50 ± SD (VeroE6/TMPRSS2 cells)
Cc1nnnn1N=Cc1ccc(O)c(C(c2ccc(O)cc2)c2cc(C=Nn3nnnc3C)ccc2O)c1 (centres unmarked) [VP-14637]	failed to block the HR1–HR2 interaction	25.1 µM	–
CC[C@H](C)[C@H](NC(=O)[C@H](C)NC(=O)[C@H](CCC(=O)O)NC(=O)[C@H](CCC(=O)O)NC(=O)[C@H](CC(C)C)NC(=O)[C@H](CCCCN)NC(=O)[C@H](CCCCN)NC(=O)[C@H](CCSC)NC(=O)[C@H](CCC(=O)O)NC(=O)[C@H](Cc1ccc(O)cc1)NC(=O)[C@H](CCC(=O)O)NC(=O)[C@H](CC(C)C)NC(=O)[C@H](CC(=O)O)NC(=O)[C@H](CC(C)C)NC(=O)[C@H](Cc1ccccc1)NC(=O)[C@@H](NC(=O)[C@@H](NC(=O)[C@H](CC(N)=O)NC(=O)[C@@H](NC(=O)[C@H](CCC(N)=O)NC(=O)[C@H](CC(=O)O)NC(=O)[C@H](CC(C)C)NC(=O)[C@@H](N)CO)[C@@H](C)CC)C(C)C)[C@@H](C)O)C(=O)N[C@@H](CCCCN)C(=O)N[C@@H](CCCCN)C(=O)N[C@@H](CC(C)C)C(=O)N[C@@H](CCC(=O)O)C(=O)N[C@@H](CCC(=O)O)C(=O)N[C@@H](CO)C(=O)N[C@@H](Cc1ccc(O)cc1)C(=O)N[C@H](C(=O)N[C@@H](CC(=O)O)C(=O)N[C@@H](CC(C)C)C(=O)N[C@@H](CCCCN)C(=O)N[C@@H](CCC(=O)O)C(=O)N[C@@H](CC(C)C)C(=O)O)[C@@H](C)CC [EK1]	–	0.001 µM	–
CCC(CC)COC(=O)[C@H](C)N[P@](=O)(OC[C@H]1O[C@@](C#N)(c2ccc3c(N)ncnn23)[C@H](O)[C@@H]1O)Oc1ccccc1 [remdesivir]	no inhibitory effect	–	4.2 ± 0.1
